Data published in patent US10660959B2, “Formulations of a PI3K/mTOR-inhibitor for intravenous administration” (Pfizer Inc., priority 2014, dated 2020).
Where “and” joins values, the source holds several entries; their conditions need not be identical. Equal entries are not always repeated.

Experiments:
Format in all cases: physicochemical
[1] = Visual observation of solution clarity (light box per European Pharmacopoeia Method 2.9.20, black and white background, Tyndall beam)
Source text: A clear solution is defined as a visually clear solution essentially free from any visible particulates that can be observed on a visual inspection. Generally, if any particulate matter is observed, the formulation is not suitable for intravenous administration and should not be utilised as occlusion of blood vessels may occur. Accordingly, in view of the qualitative nature of the visual test, the term “essentially free from any visible particulates” is usually applied when no visible particulate matter is observed.
The visual inspection can be conducted in accordance with the method defined in European Pharmacopoeia Method 2.9.20 entitled “Particulate contamination: visible particles”. […]
By this method the solution in the vial was visually inspected in a Verivide DCAC60 (trade mark) light cabinet using a light meter reading of 3250 lux against a matt black panel and a white panel.
At the end of the 5 day period the pH of each sample was measured and a visual observation of each sample was made using a light box as described in European Pharmacopoeia Method 2.9.20 (above), inspecting the samples against a black and a white background. […]
These samples were visually assessed made using a light box as described in European Pharmacopoeia Method 2.9.20 (above), inspecting the samples against a black and a white background. […] The pH was also measured. […]

[2] = pH measurement of aqueous formulation samples; conditions: for pH after dilution: roller bed overnight; for pH Check after 6 Days / pH Check after 48 hours: Investigation 5; for pH: Investigation 6, 15 hours
Method: (§1) At the end of the 5 day period the pH of each sample was measured and a visual observation of each sample was made using a light box as described in European Pharmacopoeia Method 2.9.20 (above), inspecting the samples against a black and a white background. The sample was also tested by illumination using a narrow (Tyndall) beam light source and then visually inspected from a direction perpendicular to the light beam in order to identify undissolved solid particles.
as §1, with “specified rolling” for “5 day”
as §1, with “These samples were visually assessed” for “At the end of the 5 day period the pH of each sample was measured and a visual observation of each sample was”, “particles. The pH was also measured.” for “particles.”
as §1, with “These samples were visually assessed” for “At the end of the 5 day period the pH of each sample was measured and a visual observation of each sample was made”, “particles. The pH was also measured.” for “particles.”
The diluted samples were placed on a roller bed overnight in order to reach equilibrium. The pH was also measured.
These samples were visually assessed using a light box as described in European Pharmacopoeia method 2.9.20 (above), inspecting the samples against a black and a white background. The sample was also tested by illumination using a narrow (Tyndall) beam light source and then visually inspected from a direction perpendicular to the light beam in order to identify undissolved solid particles. […] The pH was also measured.

[3] = Chemical and physical stability of crystalline free base on storage; conditions: crystalline form, 25° C. and 60% Relative Humidity
[4] = Water solubility of free base; conditions: for aqueous solution formulation at therapeutic dosage levels
[5] = Investigation 4, 3 mg/mL with 6.8 mole equivalents orthophosphoric acid (33.3 mM), roller bed room temperature ca. 19 hours, N = 1-3

Visual assessment [1, 5]: Clear
Visual assessment ([1]; Investigation 5, 3, 4 and 5 mg/mL in 33.3 mM acetic acid buffer pH 3.35, roller bed room temperature, 24 hour, 48 hour, 72 hour and 6 day periods): does not produce a clear solution
Final pH [2, 5]: 2.15 and 2.17
pH after dilution ([2]; Investigation 4, orthophosphoric acid samples diluted to 0.05 mg/mL): 3.47 and 3.48 and 3.49
pH after dilution ([2]; Investigation 4, orthophosphoric acid samples diluted to 0.1 mg/mL): 3.21 and 3.20
pH after dilution ([2]; Investigation 4, orthophosphoric acid samples diluted to 0.5 mg/mL): 2.64 and 2.63
pH Check after 6 Days ([2]; 3 mg/mL in 33.3 mM acetic acid): 3.99 and 3.95 and 3.96
pH Check after 48 hours ([2]; 3 mg/mL in 33.3 mM acetic acid): 3.89 and 3.90
pH Check after 6 Days ([2]; 4 mg/mL in 33.3 mM acetic acid): 4.03 and 4.04
pH Check after 48 hours ([2]; 4 mg/mL in 33.3 mM acetic acid): 3.94 and 3.95
pH Check after 6 Days ([2]; 5 mg/mL in 33.3 mM acetic acid): 4.18 and 4.19
pH Check after 48 hours ([2]; 5 mg/mL in 33.3 mM acetic acid): 3.99 and 4.00
pH ([2]; 3 mg/mL, ca. 6.8 mole equivalents orthophosphoric acid): 2.02 and 2.03 and 2.05
pH ([2]; 3.5 mg/mL, ca. 5.9 mole equivalents orthophosphoric acid): 2.09 and 2.07
chemically and physically stable (duration) [3]: up to 3 years
water solubility [4]: insufficiently water soluble
Compound: CN(C)C1CCN(C(=O)c2ccc(NC(=O)Nc3ccc(-c4nc(N5CCOCC5)nc(N5CCOCC5)n4)cc3)cc2)CC1 [1-(4-{[4-(Dimethylamino)piperidin-1-yl]carbonyl}phenyl)-3-[4-(4,6-dimorpholin-4-yl-1,3,5-triazin-2-yl)phenyl]urea]
